From ChEMBL document CHEMBL4028827, “Discovery of indazole aldosterone synthase (CYP11B2) inhibitors as potential treatments for hypertension” (Bioorg Med Chem Lett, 2017)

Assays:
[1] = biological target: T1, Cytochrome P450 11B2, mitochondrial (Homo sapiens, UniProt P19099); assay: Inhibition of human CYP11B2-CLE9 expressed in Chinese hamster V79 cells using 11-deoxycorticosterone as substrate preincubated for 1 hr followed by substrate addition measured for 3 hrs by HTRF assay; assay type: cell-based
T1 sequence (P19099 whole entry): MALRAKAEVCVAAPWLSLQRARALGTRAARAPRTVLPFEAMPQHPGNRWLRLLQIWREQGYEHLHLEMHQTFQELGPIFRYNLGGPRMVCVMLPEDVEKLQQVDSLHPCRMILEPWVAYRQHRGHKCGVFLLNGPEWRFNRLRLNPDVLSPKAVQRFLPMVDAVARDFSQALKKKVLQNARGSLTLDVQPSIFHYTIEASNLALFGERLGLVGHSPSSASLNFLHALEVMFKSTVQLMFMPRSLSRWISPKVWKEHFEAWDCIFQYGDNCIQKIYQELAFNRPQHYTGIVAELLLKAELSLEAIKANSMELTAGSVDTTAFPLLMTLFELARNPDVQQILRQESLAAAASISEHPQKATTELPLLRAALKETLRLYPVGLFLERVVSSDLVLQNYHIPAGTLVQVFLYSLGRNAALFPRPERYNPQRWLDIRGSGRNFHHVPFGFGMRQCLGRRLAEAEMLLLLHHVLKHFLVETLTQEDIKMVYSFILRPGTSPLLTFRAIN

[2] = biological target: T2, Cytochrome P450 11B1, mitochondrial (Homo sapiens, UniProt P15538); assay: Inhibition of human CYP11B1-8C7 expressed in Chinese hamster V79 cells using 11-deoxycortisol as substrate preincubated for 1 hr followed by substrate addition measured for 3 hrs by HTRF assay; assay type: ADME, cell-based
T2 sequence (P15538 whole entry): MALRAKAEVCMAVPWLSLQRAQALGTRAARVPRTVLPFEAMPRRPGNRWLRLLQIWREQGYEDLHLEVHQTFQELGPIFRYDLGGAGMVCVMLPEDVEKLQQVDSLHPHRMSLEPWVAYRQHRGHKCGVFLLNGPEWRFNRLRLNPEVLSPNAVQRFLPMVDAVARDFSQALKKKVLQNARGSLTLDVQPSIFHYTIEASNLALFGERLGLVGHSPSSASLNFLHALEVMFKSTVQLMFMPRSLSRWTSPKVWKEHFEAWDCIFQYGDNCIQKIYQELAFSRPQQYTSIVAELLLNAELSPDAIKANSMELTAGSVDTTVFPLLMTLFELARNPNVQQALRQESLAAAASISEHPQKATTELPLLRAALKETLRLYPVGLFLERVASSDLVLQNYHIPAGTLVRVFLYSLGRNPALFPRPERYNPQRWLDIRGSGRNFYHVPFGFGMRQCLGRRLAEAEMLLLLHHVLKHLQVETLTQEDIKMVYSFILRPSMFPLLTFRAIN

[3] = biological target: T3, Aromatase (Homo sapiens, UniProt P11511); assay: Inhibition of CYP19 (unknown origin) using MFC as substrate and NADPH as cofactor preincubated for 10 mins with cofactor followed by substrate/enzyme addition measured after 30 mins
T3 sequence (P11511 whole entry): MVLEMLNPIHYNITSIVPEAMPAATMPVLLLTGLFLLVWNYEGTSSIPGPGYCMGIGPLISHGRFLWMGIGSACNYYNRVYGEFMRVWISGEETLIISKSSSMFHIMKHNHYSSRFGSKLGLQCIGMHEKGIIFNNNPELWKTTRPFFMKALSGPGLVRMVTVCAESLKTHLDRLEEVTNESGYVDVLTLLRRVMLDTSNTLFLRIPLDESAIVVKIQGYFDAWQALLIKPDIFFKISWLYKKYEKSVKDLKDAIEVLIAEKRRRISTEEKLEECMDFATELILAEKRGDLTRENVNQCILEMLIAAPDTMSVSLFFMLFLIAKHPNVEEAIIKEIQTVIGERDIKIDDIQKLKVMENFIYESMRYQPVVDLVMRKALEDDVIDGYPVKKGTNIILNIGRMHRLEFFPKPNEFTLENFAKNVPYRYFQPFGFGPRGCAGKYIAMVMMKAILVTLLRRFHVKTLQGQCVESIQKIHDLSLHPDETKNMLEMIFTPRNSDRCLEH

[4] = biological target: T4, Steroid 21-hydroxylase (Homo sapiens, UniProt P08686); assay: Inhibition of human CYP21 expressed in African green monkey COS7 cells using […] as substrate preincubated for 1 hr followed by substrate addition measured for 3 hrs by HTRF assay; assay type: cell-based
T4 sequence (P08686 whole entry): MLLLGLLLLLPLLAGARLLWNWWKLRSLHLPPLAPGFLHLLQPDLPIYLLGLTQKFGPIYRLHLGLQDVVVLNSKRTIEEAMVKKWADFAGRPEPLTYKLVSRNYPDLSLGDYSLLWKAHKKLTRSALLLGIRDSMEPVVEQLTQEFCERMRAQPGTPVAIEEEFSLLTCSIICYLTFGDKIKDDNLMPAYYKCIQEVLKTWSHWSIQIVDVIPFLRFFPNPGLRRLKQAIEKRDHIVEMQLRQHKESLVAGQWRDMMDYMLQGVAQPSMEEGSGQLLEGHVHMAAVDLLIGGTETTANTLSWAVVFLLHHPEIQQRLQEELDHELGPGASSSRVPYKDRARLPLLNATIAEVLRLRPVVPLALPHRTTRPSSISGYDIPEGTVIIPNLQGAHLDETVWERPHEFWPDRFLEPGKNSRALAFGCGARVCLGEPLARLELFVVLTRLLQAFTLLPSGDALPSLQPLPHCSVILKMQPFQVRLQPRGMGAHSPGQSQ

[5] = biological target: Cytochrome P450 3A4 (Homo sapiens, UniProt P08684); assay: Inhibition of hepatic CYP3A4 (unknown origin); assay type: ADME
[6] = biological target: Cytochrome P450 2D6 (Homo sapiens, UniProt P10635); assay: Inhibition of hepatic CYP2D6 (unknown origin); assay type: ADME
[7] = test system: Rattus norvegicus; assay: Dose normalized AUC in Sprague-Dawley rat at 2 mg/kg, po administered via gavage by LC-MS/MS analysis; assay type: ADME, organism-based; settings: in vivo
[8] = Selectivity ratio of IC50 for hepatic CYP2D6 (unknown origin) to IC50 for human CYP11B2-CLE9 expressed in Chinese hamster V79 cells

Chain of Cytochrome P450 3A4 (P08684 whole entry): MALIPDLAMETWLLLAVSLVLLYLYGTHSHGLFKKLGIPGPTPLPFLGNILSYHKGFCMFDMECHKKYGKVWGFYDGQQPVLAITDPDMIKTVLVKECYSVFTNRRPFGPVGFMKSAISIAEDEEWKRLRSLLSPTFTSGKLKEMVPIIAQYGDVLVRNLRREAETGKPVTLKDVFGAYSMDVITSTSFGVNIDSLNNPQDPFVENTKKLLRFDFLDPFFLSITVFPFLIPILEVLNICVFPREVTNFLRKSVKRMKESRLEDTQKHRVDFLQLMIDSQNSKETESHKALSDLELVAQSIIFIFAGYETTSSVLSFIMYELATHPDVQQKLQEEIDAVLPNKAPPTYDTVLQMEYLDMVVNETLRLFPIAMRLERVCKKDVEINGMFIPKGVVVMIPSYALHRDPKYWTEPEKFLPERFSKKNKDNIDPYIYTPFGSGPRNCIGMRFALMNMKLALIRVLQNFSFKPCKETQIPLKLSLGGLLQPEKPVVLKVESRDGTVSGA
Chain of Cytochrome P450 2D6 (P10635 whole entry): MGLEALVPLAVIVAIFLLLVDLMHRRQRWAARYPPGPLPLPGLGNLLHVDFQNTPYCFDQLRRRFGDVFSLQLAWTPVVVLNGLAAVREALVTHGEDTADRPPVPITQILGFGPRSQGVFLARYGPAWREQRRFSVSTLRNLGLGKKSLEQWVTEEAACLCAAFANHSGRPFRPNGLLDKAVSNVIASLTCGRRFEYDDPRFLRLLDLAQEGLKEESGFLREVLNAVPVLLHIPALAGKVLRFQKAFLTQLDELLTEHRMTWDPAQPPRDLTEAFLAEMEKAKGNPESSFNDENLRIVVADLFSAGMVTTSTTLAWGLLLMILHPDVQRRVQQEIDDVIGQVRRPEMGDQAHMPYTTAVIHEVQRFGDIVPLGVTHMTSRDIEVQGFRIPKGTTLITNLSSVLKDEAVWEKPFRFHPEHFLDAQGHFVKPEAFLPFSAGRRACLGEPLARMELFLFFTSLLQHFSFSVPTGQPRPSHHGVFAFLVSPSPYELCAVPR

CC(C)(O)c1cncc(-n2ncc3c(C(F)(F)F)cccc32)c1
IC50 [1]: 2.2 to 2.24 nM
IC50 [2]: 98 to 98.3 nM
IC50 [3]: 4600 nM
IC50 [4]: > 10000 nM
IC50 [5]: 43000 nM
IC50 [6]: 2800 nM
AUC/dose [7]: 0.85 µM·kg·h/mg
Ratio IC50 [8]: >1000
